Experimental data from publication PMC6023986, “Interactions Between Emodin and Efflux Transporters on Rat Enterocyte by a Validated Ussing Chamber Technique” (Frontiers in Pharmacology, 2018).
Read-outs that look alike come from different tables or passages of the source. Blank lines part the entries; values can stand above or below the compound they belong to.

Assays:
[1] = system: P-gp; assay: Influence of emodin on P-gp function: digoxin bidirectional transport in the presence of emodin (Ussing chamber); format: in vitro ADME; conditions: rat jejunum; for Papp at 25 μM: rat
Source text: (§1) The four intestinal segments including duodenum, jejunum, ileum, and colon from anesthetized rats were immediately removed by surgery and washed with KRB solution. Each section of the intestinal segments was then placed in cold (on ice), bubbled (O2:CO2 95:5) KRB buffer. The four intestinal segments were then cut into 2 cm pieces, respectively, and serosas were removed by blunt dissection. Peyer’s patches were excluded from the experiment by visually identified. The stripped tissues were mounted in chambers with exposed surface area of 0.49 cm^2. Temperature of the chambers was maintained at 37 ± 0.5°C. Each of the half-cells in the chambers was filled with 5 mL fresh KRB buffer (pH 6.5). Tissue viability was continuously controlled by potential difference (PD). Tissue with electrical values less than 2 mV was refused ([Moazed and Hiebert, 2007]; [Heinen et al., 2013]).
In this study, the effects of the three efflux transporters on emodin intestinal absorption were investigated. Meanwhile, the influence of emodin on intestinal P-gp, MRP2, and MRP3 functions were also discussed. Solutions with three concentrations (low, middle, and high) of emodin were filled in the mucosal or serosal compartment to measure the bidirectional transport characteristic. […] In the emodin impact experiments, digoxin, pravastatin, and teniposide were employed as P-gp, MRP2, and MRP3 substrates. Changes of the bidirectional transport characteristic were measured before and after adding emodin to the mucosal side.
(§2) Frozen samples were adequately vortexed after thawing at the room temperature; 10 μL suitable IS solution was added to 200 μL samples; 200 μL methanol was added after a thorough vortex mixing for 30 s. The mixtures were then vortexed for 30 s and centrifuged at 15,000 rpm for 30 min. Finally, 5 μL of supernatant was injected into the LC-MS/MS system.
(§3) The quantifications of the compounds were performed by the TSQ Quantum Ultra Triple Quadrupole LC-MS/MS system from Thermo Fisher Scientific. Chromatography was carried out using an Agilent Poroshell 120 SB-C18 (2.7 μm, 2.1 mm × 100 mm) column with a Phenomenex AFO-8497 C18 pre-column, operating at 30°C. Adaptive gradient elution methods were applied for the analytes. The flow rate of the mobile phase was kept at 0.2 mL min^-1. Flow was directed to the ion spray interface. All measurements were carried out in negative ESI mode. Ion spray voltage was -2500 V. Vaporizer and capillary temperatures were set at 250 and 350°C, respectively. Auto sampler temperature was set at 10°C. Sheath gas and aux gas were set at 30 and 15 Arb, respectively. […] Peak integrations and calibrations were carried out using LC Quan 2.5.2 software from Thermo Fisher Scientific.
(§4) The Q (accumulative quantity), Papp (apparent permeability), Er (efflux ratio), Pr (Papp ratio), and Err (Er ratio) across the excited rat intestinal segments in the Ussing chamber were calculated using the following equations ([Li et al., 2012]; [Huang et al., 2016]): […]
(§5) where Cn (nM) is the concentration of the drug at the time point (n), Q (nM) is the accumulated absorption amount, A is the exposed surface area of the intestine (0.49 cm^2), dQ/dt (nM⋅s^-1) is the amount of the drug transported, and C0 (nM) is the initial concentration of the test drug. Experiments were performed in batches, so control groups were set as one for each batch.

[2] = system: P-gp; assay: in vitro; conditions: rat
Experimental: The quantifications of the compounds were performed by the TSQ Quantum Ultra Triple Quadrupole LC-MS/MS system from Thermo Fisher Scientific. […] Adaptive gradient elution methods were applied for the analytes. The flow rate of the mobile phase was kept at 0.2 mL min^-1. Flow was directed to the ion spray interface. All measurements were carried out in negative ESI mode. Ion spray voltage was -2500 V. Vaporizer and capillary temperatures were set at 250 and 350°C, respectively. Auto sampler temperature was set at 10°C. Sheath gas and aux gas were set at 30 and 15 Arb, respectively. […] Peak integrations and calibrations were carried out using LC Quan 2.5.2 software from Thermo Fisher Scientific.

[3] = target: MRP2 (Rattus norvegicus, UniProt Q63120); assay: Ussing chamber bidirectional transport, model validation for MRP2 (pravastatin substrate, MK571 inhibitor); format: in vitro ADME; design: intestinal segments including duodenum, jejunum, ileum, and colon from anesthetized rats were immediately removed by surgery; from tissue; host or cells: stripped rat intestine (jejunum and ileum in validation; jejunum for the emodin studies); conditions: jejunum and ileum, MK571 186 μM, pravastatin as substrate
Chain of MRP2 (Q63120 whole entry, the tested form may be a part): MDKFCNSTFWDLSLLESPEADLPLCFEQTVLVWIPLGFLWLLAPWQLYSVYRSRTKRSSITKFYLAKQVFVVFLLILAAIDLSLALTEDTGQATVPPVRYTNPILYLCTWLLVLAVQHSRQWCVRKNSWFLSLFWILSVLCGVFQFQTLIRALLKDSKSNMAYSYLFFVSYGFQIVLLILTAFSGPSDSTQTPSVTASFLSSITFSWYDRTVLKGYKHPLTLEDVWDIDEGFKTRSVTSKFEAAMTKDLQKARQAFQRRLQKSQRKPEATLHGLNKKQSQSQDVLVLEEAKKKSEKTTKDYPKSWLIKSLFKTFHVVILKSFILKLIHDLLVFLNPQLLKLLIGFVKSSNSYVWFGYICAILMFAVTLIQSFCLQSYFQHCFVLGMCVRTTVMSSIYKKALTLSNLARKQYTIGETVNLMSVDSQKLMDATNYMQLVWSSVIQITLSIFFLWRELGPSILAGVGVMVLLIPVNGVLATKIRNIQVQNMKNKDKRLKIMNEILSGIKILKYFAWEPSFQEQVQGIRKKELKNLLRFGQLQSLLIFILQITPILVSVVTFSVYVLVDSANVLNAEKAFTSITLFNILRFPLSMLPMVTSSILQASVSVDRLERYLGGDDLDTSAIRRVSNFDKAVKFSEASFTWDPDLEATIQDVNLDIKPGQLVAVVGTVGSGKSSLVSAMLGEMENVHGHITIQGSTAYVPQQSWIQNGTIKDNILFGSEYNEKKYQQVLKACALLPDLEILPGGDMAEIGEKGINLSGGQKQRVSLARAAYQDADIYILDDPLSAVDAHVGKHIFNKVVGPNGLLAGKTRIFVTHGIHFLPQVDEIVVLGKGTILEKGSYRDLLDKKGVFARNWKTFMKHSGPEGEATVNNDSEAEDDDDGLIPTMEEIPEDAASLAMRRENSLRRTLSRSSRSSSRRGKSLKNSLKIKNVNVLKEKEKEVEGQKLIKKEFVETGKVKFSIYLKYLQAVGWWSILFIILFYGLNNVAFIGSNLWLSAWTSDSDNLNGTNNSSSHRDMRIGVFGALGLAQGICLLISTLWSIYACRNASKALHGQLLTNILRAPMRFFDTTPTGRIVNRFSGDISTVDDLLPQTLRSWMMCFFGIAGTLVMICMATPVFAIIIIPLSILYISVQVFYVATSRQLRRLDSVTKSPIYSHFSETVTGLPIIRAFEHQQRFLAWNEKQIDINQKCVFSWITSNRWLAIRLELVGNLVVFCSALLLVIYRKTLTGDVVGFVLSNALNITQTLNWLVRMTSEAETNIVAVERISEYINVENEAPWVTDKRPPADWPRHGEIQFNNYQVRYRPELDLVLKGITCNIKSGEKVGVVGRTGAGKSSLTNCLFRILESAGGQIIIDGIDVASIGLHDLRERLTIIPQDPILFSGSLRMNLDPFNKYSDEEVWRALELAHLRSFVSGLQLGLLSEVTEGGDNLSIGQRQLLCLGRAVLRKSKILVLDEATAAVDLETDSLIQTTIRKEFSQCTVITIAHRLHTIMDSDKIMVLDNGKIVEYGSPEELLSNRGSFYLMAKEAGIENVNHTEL
Source text: as §1, with “(PD).” for “(PD). Tissue with electrical values less than 2 mV was refused ([Moazed and Hiebert, 2007]; [Heinen et al., 2013]).”
(§6) Digoxin, pravastatin, and teniposide were employed as the test substrates of P-gp, MRP2, and MRP3. […] The experiments were started after 30 min equilibration time, by changing the KRB buffer on both sides; 5 mL KRB solution with different test compounds was filled in the mucosal or serosal compartment; meanwhile, equal volume fresh buffer was added to the other compartment. […] The bidirectional transport studies with specific inhibitors were assessed to validate this model whether or not suitable for P-gp, MRP2, and MRP3 studies.
as §2
as §3, with “Chromatography was carried out using an Agilent Poroshell 120 SB-C18 (2.7 μm, 2.1 mm × 100 mm) column with a Phenomenex AFO-8497 C18 pre-column, operating at 30°C.” left out
as §5

[4] = target: T1, MRP3 (Rattus norvegicus, UniProt O88563); assay: Ussing chamber bidirectional transport, model validation for MRP3 (teniposide substrate, benzbromarone inhibitor); format: in vitro ADME; conditions: jejunum and ileum, benzbromarone 470 μM, teniposide as substrate
T1 construct: intestinal segments including duodenum, jejunum, ileum, and colon from anesthetized rats were immediately removed by surgery; from tissue; host or cells: stripped rat intestine (jejunum and ileum in validation; jejunum for the emodin studies)
T1 sequence (O88563 whole entry): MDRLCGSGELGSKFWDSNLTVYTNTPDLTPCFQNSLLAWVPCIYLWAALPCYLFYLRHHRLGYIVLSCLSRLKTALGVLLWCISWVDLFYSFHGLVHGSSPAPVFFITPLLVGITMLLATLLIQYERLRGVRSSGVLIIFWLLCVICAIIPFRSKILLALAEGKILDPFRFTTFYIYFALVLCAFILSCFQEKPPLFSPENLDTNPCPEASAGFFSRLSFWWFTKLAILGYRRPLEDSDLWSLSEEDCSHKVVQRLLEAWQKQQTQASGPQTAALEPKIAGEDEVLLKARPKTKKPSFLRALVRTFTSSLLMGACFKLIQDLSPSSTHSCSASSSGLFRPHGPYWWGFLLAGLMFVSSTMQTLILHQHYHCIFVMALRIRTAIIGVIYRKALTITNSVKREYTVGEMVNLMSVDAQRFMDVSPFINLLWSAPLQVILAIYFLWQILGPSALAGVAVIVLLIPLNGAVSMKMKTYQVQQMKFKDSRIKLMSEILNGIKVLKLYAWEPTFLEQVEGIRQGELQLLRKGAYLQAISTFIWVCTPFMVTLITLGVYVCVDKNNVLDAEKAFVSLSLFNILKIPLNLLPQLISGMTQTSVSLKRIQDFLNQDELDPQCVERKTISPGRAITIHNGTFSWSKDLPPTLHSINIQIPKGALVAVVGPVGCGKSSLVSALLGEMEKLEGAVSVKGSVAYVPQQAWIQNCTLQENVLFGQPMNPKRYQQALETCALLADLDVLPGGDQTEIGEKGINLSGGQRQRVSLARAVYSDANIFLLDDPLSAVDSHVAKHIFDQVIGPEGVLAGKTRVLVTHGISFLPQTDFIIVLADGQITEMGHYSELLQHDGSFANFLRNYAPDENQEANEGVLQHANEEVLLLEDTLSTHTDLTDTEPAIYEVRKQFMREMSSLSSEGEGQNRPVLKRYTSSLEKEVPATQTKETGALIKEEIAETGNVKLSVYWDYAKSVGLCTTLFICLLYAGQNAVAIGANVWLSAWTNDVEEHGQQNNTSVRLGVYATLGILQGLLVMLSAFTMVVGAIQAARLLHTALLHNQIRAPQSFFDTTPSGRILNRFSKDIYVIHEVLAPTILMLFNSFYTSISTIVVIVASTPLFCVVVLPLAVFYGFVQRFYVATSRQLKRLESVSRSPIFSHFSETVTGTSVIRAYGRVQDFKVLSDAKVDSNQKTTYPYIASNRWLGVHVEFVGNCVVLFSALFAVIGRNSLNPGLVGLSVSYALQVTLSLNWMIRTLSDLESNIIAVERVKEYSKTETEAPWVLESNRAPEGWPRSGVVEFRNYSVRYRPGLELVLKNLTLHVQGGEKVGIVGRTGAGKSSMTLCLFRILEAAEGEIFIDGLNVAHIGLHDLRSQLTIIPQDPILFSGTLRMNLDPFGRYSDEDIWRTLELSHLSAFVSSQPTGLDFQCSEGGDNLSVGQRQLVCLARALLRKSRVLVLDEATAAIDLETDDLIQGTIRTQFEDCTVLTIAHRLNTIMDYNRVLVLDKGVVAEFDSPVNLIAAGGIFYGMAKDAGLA
Source text: as §1
as §6, with “studies. Samples were stored at –80°C until analysis ([Deusser et al., 2013]).” for “studies.”
as §2, §3, §4, §5

Change of Er values of digoxin after adding emodin ([1]; digoxin 25 μM, emodin 185, 370, 740 μM): significant higher
Papp at 25 μM ([1]; pH 6.5, digoxin 25 μM, without emodin, read-out: Papp M-S, control): 91.6 ± 41 ×10⁻⁶ cm/s
Papp at 25 μM ([1]; pH 6.5, digoxin 25 μM, without emodin, read-out: Papp S-M, control): 152 ± 43.9 ×10⁻⁶ cm/s
Papp at 25 μM ([1]; pH 6.5, with emodin 185 μM on mucosal side, digoxin 25 μM, emodin 185 μM on mucosal side, read-out: Papp M-S in the presence of emodin): 55.8 ± 29.8 ×10⁻⁶ cm/s
Papp at 25 μM ([1]; pH 6.5, with emodin 185 μM on mucosal side, digoxin 25 μM, emodin 185 μM on mucosal side, read-out: Papp S-M in the presence of emodin): 257 ± 47.6 ×10⁻⁶ cm/s
Papp at 25 μM ([1]; pH 6.5, with emodin 370 μM on mucosal side, digoxin 25 μM, emodin 370 μM on mucosal side, read-out: Papp M-S in the presence of emodin): 49 ± 12.8 ×10⁻⁶ cm/s
Papp at 25 μM ([1]; pH 6.5, with emodin 370 μM on mucosal side, digoxin 25 μM, emodin 370 μM on mucosal side, read-out: Papp S-M in the presence of emodin): 461 ± 191 ×10⁻⁶ cm/s
Papp at 25 μM ([1]; pH 6.5, with emodin 740 μM on mucosal side, digoxin 25 μM, emodin 740 μM on mucosal side, read-out: Papp M-S in the presence of emodin): 20.4 ± 7.6 ×10⁻⁶ cm/s
Papp at 25 μM ([1]; pH 6.5, with emodin 740 μM on mucosal side, digoxin 25 μM, emodin 740 μM on mucosal side, read-out: Papp S-M in the presence of emodin): 142 ± 29.7 ×10⁻⁶ cm/s
Papp ([2]; pH 6.5, Papp M-S, control, rat colon, without inhibitor): 63.1 ± 33.1 ×10⁻⁶ cm/s
Papp ([2]; pH 6.5, Papp M-S, control, rat duodenum, without inhibitor): 72.5 ± 32.8 ×10⁻⁶ cm/s
Papp ([2]; pH 6.5, Papp M-S, control, rat ileum, without inhibitor): 43.1 ± 15 ×10⁻⁶ cm/s
Papp ([2]; pH 6.5, Papp M-S, control, rat jejunum, without inhibitor): 57.8 ± 11.2 ×10⁻⁶ cm/s
Papp ([2]; pH 6.5, Papp S-M, control, rat colon, without inhibitor): 137 ± 66.3 ×10⁻⁶ cm/s
Papp ([2]; pH 6.5, Papp S-M, control, rat duodenum, without inhibitor): 186 ± 144 ×10⁻⁶ cm/s
Papp ([2]; pH 6.5, Papp S-M, control, rat ileum, without inhibitor): 228 ± 136 ×10⁻⁶ cm/s
Papp ([2]; pH 6.5, Papp S-M, control, rat jejunum, without inhibitor): 270 ± 125 ×10⁻⁶ cm/s
Papp ([2]; pH 6.5, with verapamil 220 μM, mucosal side, Papp M-S, with inhibitor, rat duodenum, with verapamil 220 μM on mucosal side): 45.3 ± 23.2 ×10⁻⁶ cm/s
Papp ([2]; pH 6.5, with verapamil 220 μM, mucosal side, Papp M-S, with inhibitor, rat ileum, with verapamil 220 μM on mucosal side): 191 ± 90.5 ×10⁻⁶ cm/s
Papp ([2]; pH 6.5, with verapamil 220 μM, mucosal side, Papp M-S, with inhibitor, rat jejunum, with verapamil 220 μM on mucosal side): 119 ± 58.5 ×10⁻⁶ cm/s
Papp ([2]; pH 6.5, with verapamil 220 μM, mucosal side, Papp S-M, with inhibitor, rat duodenum, with verapamil 220 μM on mucosal side): 79.7 ± 32.2 ×10⁻⁶ cm/s
Papp ([2]; pH 6.5, with verapamil 220 μM, mucosal side, Papp S-M, with inhibitor, rat ileum, with verapamil 220 μM on mucosal side): 157 ± 108 ×10⁻⁶ cm/s
Papp ([2]; pH 6.5, with verapamil 220 μM, mucosal side, Papp S-M, with inhibitor, rat jejunum, with verapamil 220 μM on mucosal side): 96.4 ± 86.4 ×10⁻⁶ cm/s
Papp ([2]; pH 6.5, with verapamil 440 μM, mucosal side, Papp M-S, with inhibitor, rat colon, with verapamil 440 μM on mucosal side): 189 ± 34.3 ×10⁻⁶ cm/s
Papp ([2]; pH 6.5, with verapamil 440 μM, mucosal side, Papp S-M, with inhibitor, rat colon, with verapamil 440 μM on mucosal side): 191 ± 40.1 ×10⁻⁶ cm/s
SMILES: C[C@H]1O[C@@H](O[C@H]2[C@@H](O)C[C@H](O[C@H]3[C@@H](O)C[C@H](O[C@H]4CC[C@@]5(C)[C@H](CC[C@@H]6[C@@H]5C[C@@H](O)[C@]5(C)[C@@H](C7=CC(=O)OC7)CC[C@]65O)C4)O[C@@H]3C)O[C@@H]2C)C[C@H](O)[C@@H]1O [Digoxin]

Inhibition effect on MRP2 [3]: significant inhibition effect
SMILES: CN(C)C(=O)CCSC(SCCC(=O)O)c1cccc(/C=C/c2ccc3ccc(Cl)cc3n2)c1 (stereo not drawn) [MK571]

Inhibition effect on MRP3 [4]: significant inhibition effect
SMILES: CCc1oc2ccccc2c1C(=O)c1cc(Br)c(O)c(Br)c1 [Benzbromarone]
